Experimental data: EP0518753B1, “Derivatives of 1,5-diyne-3-cycloalcene, their process of preparation and pharmaceutical compositions containing them” (ADIR ET COMPAGNIE, priority 1991, dated 1992)

System: cellules L 1210 (Leucémie murine)
Experiment: In vitro cytotoxicity, Microculture Tetrazolium Assay (cell growth inhibition)
Type: cell-based
Conditions: Mus musculus, L1210, L 1210 cells in RPMI 1640 with 10 % fetal calf serum, read-out: IC₅₀, concentration inhibant à 50 % la croissance cellulaire
Description: Les cellules L 1210 (Leucémie murine) sont cultivées dans du RPMI 1640 complémenté avec 10 % de sérum de veau foetal, 2 mM de L-glutamine, 100 unités/ml de pénicilline, 100 µg/ml de streptomycine et 10 mM d'Hepes (pH : 7,4). L'inhibition de la croissance cellulaire est mesurée selon le "Microculture Tetrazolium Assay" décrit par M. ALLEY et coll. (Cancer Res., 48, 589-601, 1988).
Les résultats de ce test sont exprimés en IC₅₀, concentration inhibant à 50 % la croissance cellulaire. Le produit de référence utilisé est le BCNU, agent alkylant très actif utilisé en clinique.

Structure (SMILES) | IC50
O=NN(CCCl)C(=O)NCCCl [BCNU, reference compound] | 6.4 µM
CC(=O)OC1C#C/C=C\C#CCCC1 (stereo not drawn) [exemple 2, 7-Acétoxy-1,5-diyne-3-cyclodécène] | 5.6 µM
O=C1C#Cc2ccccc2C#CCCC1 [exemple 7, 7-Oxo-benzo[c]cyclodéca-1,5-diyne] | 0.5 µM
